Source: patent US10738031B2, “N-[(heteroaryloxy)propanyl]heteroaryl carboxamides as antagonists of orexin subtype 1 receptor activity” (Boehringer Ingelheim International GmbH, priority 2016, dated 2020)

Assays:
human Orexin 1 receptor = biological target: T1, human Orexin 1 receptor (Homo sapiens, UniProt O43613); assay: Assay A: OX1R IP1 (in vitro OX1R potency); format: cell-based; conditions: for Kb: Table 3
T1 construct: stably expressing the full-length human Orexin 1 receptor; expressed in transfected cells; host or cells: CHO-K1 (CHO-K1/hOX1), co-expressing aequorin
T1 sequence (O43613 1-425): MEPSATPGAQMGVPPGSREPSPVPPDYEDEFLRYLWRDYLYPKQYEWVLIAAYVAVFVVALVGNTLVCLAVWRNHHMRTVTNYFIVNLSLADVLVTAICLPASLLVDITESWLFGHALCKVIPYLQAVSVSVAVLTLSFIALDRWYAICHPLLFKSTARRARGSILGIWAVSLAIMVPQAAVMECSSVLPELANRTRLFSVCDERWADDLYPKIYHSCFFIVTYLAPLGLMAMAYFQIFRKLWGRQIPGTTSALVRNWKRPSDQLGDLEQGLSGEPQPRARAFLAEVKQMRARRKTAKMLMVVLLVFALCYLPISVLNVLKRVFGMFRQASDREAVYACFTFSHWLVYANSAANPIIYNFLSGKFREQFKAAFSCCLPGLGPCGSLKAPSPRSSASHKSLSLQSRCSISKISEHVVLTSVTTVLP

[1] = Assay C: Human MST t1/2 (stability in human liver microsomes); format: in vitro ADME; conditions: human liver microsomes
human orexin 2 receptor = biological target: T2, human orexin 2 receptor (Homo sapiens, UniProt O43614); assay: Assay B: OX2R IP1 (in vitro OX2R potency); format: cell-based; conditions: Table 3; 0.5 nM Orexin A concentration
T2 construct: stably expressing the full-length human orexin 2 receptor; expressed in transfected cells; host or cells: CHO-K1 (CHO-K1/hOX2), co-expressing aequorin
T2 sequence (O43614 1-444): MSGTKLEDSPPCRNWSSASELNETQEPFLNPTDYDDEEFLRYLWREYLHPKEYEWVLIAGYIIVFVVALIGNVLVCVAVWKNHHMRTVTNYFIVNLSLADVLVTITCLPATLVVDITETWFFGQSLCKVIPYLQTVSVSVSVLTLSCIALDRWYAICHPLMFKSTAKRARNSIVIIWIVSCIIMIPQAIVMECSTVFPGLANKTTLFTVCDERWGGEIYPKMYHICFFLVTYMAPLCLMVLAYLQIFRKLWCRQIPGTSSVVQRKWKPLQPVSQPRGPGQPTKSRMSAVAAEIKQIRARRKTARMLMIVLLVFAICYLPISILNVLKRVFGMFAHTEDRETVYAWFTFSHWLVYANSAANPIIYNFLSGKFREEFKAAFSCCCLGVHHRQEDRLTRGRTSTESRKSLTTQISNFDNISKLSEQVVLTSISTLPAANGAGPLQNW
Text: Activation of the orexin receptors expressed in cell lines results in an increase in intracellular IP3 concentration. IP1, a downstream metabolite of IP3, accumulates in cells following receptor activation and is stable in the presence of LiCl. Using Homogeneous Time-Resolved Fluorescence technology with Lumi4-Tb cryptate (commercially available from Cisbio Bioassay.) and a suitable fluorescence plate reader. This functional response is detectable and quantifiable as described in Trinquet et al. Anal. […] Curr. Chem. Genomics 2009, 3, 22-32. This technique is used to characterize pharmacological modification of the orexin receptors. B. In Vitro Testing of OX2R Potency: OX2R IP1 IP1 measurements are performed in CHO-K1 cells stably expressing the full-length human orexin 2 receptor and the aequorin photoprotein. Cells are cultivated in Ham's nutrient mixture F12 medium with 10% fetal calf serum, in a 37° C., 95% humidity and 5% CO2 incubator. The CHO-K1/hOX2 cell mass is expanded to larger cell numbers. The cells are obtained as frozen cells in cryo-vials and stored until use at -150° C. The viability of the cells after thawing is >90%. In preparation for the assay, 24 hours before the assay, the cells are thawed at 37° C. and immediately diluted with cell culture medium. After centrifugation, the cell pellet is resuspended in medium and then distributed into the assay plates with a density of 5000 cells/25 μL per well. The plates are incubated for one hour at room temperature to reduce edge effects before they are incubated for 24 hours at 37° C./5% CO2. […] On the day of the assay, cells in the plate are washed twice with 60 μL assay buffer (20 μL buffer remained in the wells after washing), followed by adding 5 μL per well of compounds diluted in assay buffer. […] The assay plate is incubated for 60 minutes at 37° C. Then 5 μL per well of Anti-IP1-Cryptate Tb solution and 5 μL per well of IP1-d2 dilution are added to all well of the plate and the plate is incubated for a further 60 minutes light protected at room temperature. […] The ratio between the emission at 665 nm and 615 is calculated by the reader. […] AssayExplorer (Accelrys). In order to establish an agonist concentration independent parameter, Kb values are calculated using the following equation: […] Sci. 1993, 14(4), 110-112).

Compound	OX2R Kb/OX1R Kb (human Orexin 1 receptor)	Kb (human Orexin 1 receptor; Orexin A concentration 0.5 nM) [nM]	half-life [1] [min]	Kb (human orexin 2 receptor) [nM]	Kb (human Orexin 1 receptor; Orexin A concentration 50 nM) [nM]
CCN(C(=O)c1ncccc1-n1nccn1)[C@@H](C)COc1ccc(C(F)(F)F)cn1 [Example 26]	281	0.95	> 130	267	–
CCN(C(=O)c1cc(C)cnc1-c1ccn(C)n1)[C@@H](C)COc1ccc(C(F)(F)F)cn1 [Example 27]	–	0.87	31	134	0.69
CCN(C(=O)c1ccc(C(F)(F)F)nc1-c1ccn(C)n1)[C@@H](C)COc1ccc(C(F)(F)F)cn1 [Example 28]	353	2	11	705	–
CCN(C(=O)c1ccncc1-c1ccn(C)n1)[C@@H](C)COc1ccc(C(F)(F)F)cn1 [Example 29]	184	8.7	11	1600	–
CCN(C(=O)c1ccc(C)nc1-n1nccn1)[C@@H](C)COc1ncc(C(F)(F)F)cn1 [Example 30]	641	5.6	> 130	3590	–
CCN(C(=O)c1ccc(OC)nc1-c1ccn(C)n1)[C@@H](C)COc1ccc(C(F)(F)F)cn1 [Example 32]	707	–	12	106	0.15
CCN(C(=O)c1ccc(C)nc1-n1nccn1)[C@@H](C)COc1cnc(C(F)(F)F)cn1 [Example 33]	421	7.8	> 130	3280	–
CCN(C(=O)c1ncccc1-c1ccn(C)n1)[C@@H](C)COc1ccc(C(F)(F)F)cn1 [Example 34]	190	1.5	81	285	–
CCN(C(=O)c1cc(F)cnc1-c1ncccn1)[C@@H](C)COc1ncc(C(F)(F)F)cc1F [Example 35]	706	4.6	> 130	3250	–
CCN(C(=O)c1cnccc1-n1nccn1)[C@@H](C)COc1ccc(C(F)(F)F)cn1 [Example 36]	240	1	15	240	–
CCN(C(=O)c1ncc(F)cc1-c1ccn(C)n1)[C@@H](C)COc1ccc(C(F)(F)F)cn1 [Example 37]	243	3.3	24	802	–
CCN(C(=O)c1cc(OC)ncc1-c1ccn(C)n1)[C@@H](C)COc1ccc(C(F)(F)F)cn1 [Example 38]	135	2.4	12	323	–
CCN(C(=O)c1ccncc1-n1cccn1)[C@@H](C)COc1ccc(C(F)(F)F)cn1 [Example 40]	120	13	10	1560	–
CCN(C(=O)c1cnccc1-n1nccn1)[C@@H](C)COc1ncc(C(F)(F)F)cc1F [Example 42]	210	2.3	13	483	–
CCN(C(=O)c1cc(OC)cnc1-n1nccn1)[C@@H](C)COc1ccc(Cl)cn1 [Example 43]	171	1.9	110	325	–
CCN(C(=O)c1cccnc1-n1nccn1)[C@@H](C)COc1ncc(C(F)(F)F)cc1F [Example 44]	289	4.2	> 130	1210	–
CCN(C(=O)c1cc(F)cnc1-c1ncccn1)[C@@H](C)COc1cnc(C(F)(F)F)cn1 [Example 45]	332	20	> 130	6650	–
